Experimental data as given in patent publication US8158088B2, “Extractant compositions for co-extracting cesium and strontium, a method of separating cesium and strontium from an aqueous feed, and calixarene compounds” (Battelle Energy Alliance, LLC, priority 2008, dated 2012).

Tests used:
Assay type in all cases: physicochemical
[1] = Solvent stability: cesium distribution ratios as a function of contact time with 1.5 M HNO3
Procedure: The stability of the mixed extractant solvents prepared using dialkyloxycalix[4]arenebenzocrown-6 compounds (MC-8, MC-8B, MC-10, MC-10B, MC-12, or MC-12B) relative to BOBCalixC6 in the FPEX I process solvent was determined. Samples were prepared using each of the dialkyloxycalix[4]arenebenzocrown-6 compounds and contacted with 1.5 M HNO3. The samples included 0.007 M of the respective dialkyloxycalix[4]arenebenzo-crown-6 compound (MC-8, MC-8B, MC-10, MC-10B, MC-12, or MC-12B), 0.075 M DtBuCH18C6, 0.75 M Cs-7SB modifier, and 0.003 M TOA in ISOPAR® L. The stability of the dialkyloxycalix[4]arene-benzocrown-6 based solvents was evaluated by measuring the cesium and strontium distribution ratios as a function of contact time. These cesium and strontium distribution ratios for the mixed extractant solvents are presented in Table 9 and Table 10, respectively, along with the cesium and strontium distribution ratios for the FPEX I process solvent. The symbol “-” is used in Tables 9 and 10 to indicate no data was collected.
This degradation is likely due to chemical attack or nitration of the BOBCalixC6 in the FPEX I process solvent. […] However, it is difficult to compare the relative extents of degradation. In order to compare the different extractants, the distribution ratio data presented in Tables 9 and 10 were normalized to the values obtained at t=0 days contact. The normalized cesium and strontium distribution ratios for the FPEX I process solvent and the mixed extractant solvents as a function of contact time are presented in FIGS. 2 and 3, respectively.

[2] = Solubility of the calixarene in the extractant solvent
[3] = Cesium distribution ratio (DCs), equilibrium batch contact of mixed extractant solvent with nitric acid feed
Source text: The distribution of cesium and strontium between the first organic phase (the mixed extractant solvent including the dialkyloxycalix[4]arenebenzocrown-6 compound) and the first aqueous phase (aqueous feed) may be determined by conventional techniques. The distribution ratio for strontium (“DSr”) may be calculated as the ratio of organic phase activity to the aqueous phase activity at equilibrium. High values for the DSr indicate that the strontium is present predominantly in the organic phase while low values for the DSr indicate that the strontium is present predominantly in the aqueous phase. Similarly, the distribution ratio for cesium (“DCs”) may be calculated as the ratio of organic phase activity to the aqueous phase activity at equilibrium. High values for the DCs indicate that the cesium is present predominantly in the organic phase while low values for the DCs indicate that the cesium is present predominantly in the aqueous phase.
Distribution ratios (DM=[M]org/[M]aq) were measured by equilibrium batch contacts between the organic and aqueous phases at an organic-to-aqueous phase ratio (O/A) of unity (O/A=1). All distribution ratio measurements were conducted in a temperature controlled water bath at 25±1° C. The aqueous phase was of the appropriate HNO3 concentration, to which trace quantities (typically, less than 10^−7 M each) of the major radionuclides of interest (^137Cs, ^85Sr, ^154Eu, or ^241Am) were added. The organic and aqueous phases were contacted by vortex mixing for 1 minute. All batch contact experiments were performed at ambient temperature (from approximately 20° C. to approximately 25° C.) unless otherwise noted. Following extraction, the samples were centrifuged for 1 minute and the organic and aqueous phases separated by pipet or centrifugation. The distribution ratios (DSr, or DCs) were calculated as the ratio of the appropriate specific activities in the organic and aqueous phases as determined by γ-ray counting (gamma spectroscopy). The counting time was selected to provide less than approximately 1% statistical uncertainty.
(MC-8, MC-8B, MC-10, MC-10B, MC-12, or MC-12B), 0.075 M DtBuCH18C6, 0.75 M Cs-7SB modifier, and 0.003 M TOA in ISOPAR® L were evaluated for their respective abilities to simultaneously extract cesium and strontium from the aqueous feed simulant composition described in Table 2. The cesium and strontium distribution ratios of the mixed extraction solvents were compared to those of the FPEX I process solvent. The cesium extraction performance and strontium extraction performance of each of the mixed extractant solvents was determined using the batch contact flowsheet presented in FIG. 1, where “E1,” “E2,” and “E3” refer to three forward extraction acts: a first extraction act, a second extraction act, and a third extraction act, respectively, and “St1” and “St2” refer to two backward extraction acts: a first strip act and a second strip act, respectively. […] The aqueous feed 2 and the mixed extractant solvent 4 were combined in a vessel 6 to conduct the extraction. Two phases were formed during the extraction: the first organic phase and the first aqueous phase, with the cesium and strontium substantially distributed in the first organic phase.
The cesium and strontium distribution ratios for the mixed extractant solvents 4 were calculated for the first organic phase and are reported in Tables 3 and 4, respectively, as E1, along with the cesium and strontium distribution ratios for the FPEX I process solvent. The cesium and strontium were stripped from the first (and subsequent) organic phase to recover these radionuclides. For the strips or backward extractions, the first (and subsequent) organic phase was contacted with dilute acidic solution 8, which was 0.01 M HNO3. […]

Question: Which results are given for CCCCCCCCOc1c2cccc1Cc1cccc3c1OCCOCCOc1ccccc1OCCOCCOc1c(cccc1Cc1cccc(c1OCCCCCCCC)C3)C2 [MC-8, 1,3-alternate-25,27-di(octyloxy)calix[4]arenebenzocrown-6]?
Answer: Cesium distribution ratio as a function of contact time ([1]; contact time 0 days with 1.5 M HNO3, 0.007 M calixarene, 0.075 M DtBuCH18C6, 0.75 M Cs-7SB, 0.003 M TOA in ISOPAR L): 4.2; Cesium distribution ratio as a function of contact time ([1]; contact time 34 days with 1.5 M HNO3): 3.2; Cesium distribution ratio as a function of contact time ([1]; contact time 70 days with 1.5 M HNO3): 3.6; Cesium distribution ratio as a function of contact time ([1]; contact time 278 days with 1.5 M HNO3): 2.8; precipitation on storage ([2]; 0.05 M MC-8 solvent, room temperature, several months): no observable precipitation; solubility in the mixed extractant solvent ([2]; MC-8 varied from 0.01 M to 0.05 M in 0.075 M DtBuCH18C6, 0.75 M Cs-7SB, 0.003 M TOA in ISOPAR L): soluble at these increased concentrations; DCs ([3]; 0.010 M MC-8, contact E1, 1.5 M HNO3, 0.075 M DtBuCH18C6, 0.75 M Cs-7SB, 0.003 M TOA in ISOPAR L): 7.2; DCs ([3]; 0.015 M MC-8, contact E1, 1.5 M HNO3): 13.3; DCs ([3]; 0.020 M MC-8, contact E1, 1.5 M HNO3): 21.5; DCs ([3]; 0.025 M MC-8, contact E1, 1.5 M HNO3): 29.4; cesium distribution ratio ([3]; 0.05 M MC-8 (as printed in text), 1.5 M HNO3): 29; DCs ([3]; 1.0 M HNO3, 20 °C, contact E1, 0.025 M MC-8, 0.075 M DtBuCH18C6, 0.75 M Cs-7SB, 0.003 M TOA in ISOPAR L): 31.0; DCs ([3]; 1.5 M HNO3, 20 °C, contact E1, 0.025 M MC-8): 35.6; DCs ([3]; 2.0 M HNO3, 20 °C, contact E1, 0.025 M MC-8): 39.9; DCs ([3]; 3.0 M HNO3, 20 °C, contact E1, 0.025 M MC-8): 3rd phase; DCs ([3]; 4.0 M HNO3, 20 °C, contact E1, 0.025 M MC-8): 3rd phase; DCs ([3]; 15 °C, contact E1, 1.0 M HNO3 feed, 0.025 M MC-8, 0.075 M DtBuCH18C6, 0.75 M Cs-7SB, 0.003 M TOA in ISOPAR L): 44.5; DCs ([3]; 20 °C, contact E1, 1.0 M HNO3 feed, 0.025 M MC-8): 24.5; DCs ([3]; 25 °C, contact E1, 1.0 M HNO3 feed, 0.025 M MC-8): 15.7; DCs ([3]; 30 °C, contact E1, 1.0 M HNO3 feed, 0.025 M MC-8): 9.9; DCs ([3]; 35 °C, contact E1, 1.0 M HNO3 feed, 0.025 M MC-8): 6.2; DCs ([3]; contact E1, batch contact flowsheet, simulated feed 1.0 M HNO3, 0.025 M MC-8): 34.7; DCs ([3]; contact E2, simulated feed 1.0 M HNO3, 0.025 M MC-8): 29.0; DCs ([3]; contact E3, simulated feed 1.0 M HNO3, 0.025 M MC-8): 21.9; DCs ([3]; contact St1 (strip), 0.025 M MC-8): 0.63; DCs ([3]; contact St2 (strip), 0.025 M MC-8): 0.25; Cesium distribution ratio, contact E1 ([3]; first forward extraction, 1.5 M HNO3 feed simulant, 25 °C, 0.007 M calixarene, 0.075 M DtBuCH18C6, 0.75 M Cs-7SB, 0.003 M TOA in ISOPAR L): 4.2; Cesium distribution ratio, contact St1 ([3]; first strip with 0.01 M HNO3, 35 °C, 0.007 M calixarene solvent): 0.6; Cesium distribution ratio, contact E2 ([3]; second forward extraction, 1.5 M HNO3 feed, 25 °C, 0.007 M calixarene solvent): 1.9; Cesium distribution ratio, contact St2 ([3]; second strip with 0.01 M HNO3, 35 °C, 0.007 M calixarene solvent): 0.2; Cesium distribution ratio, contact E3 ([3]; third forward extraction, 1.5 M HNO3 feed, 25 °C, 0.007 M calixarene solvent): 1.5
